Like-named read-outs stand apart in the source and are kept apart here.
What was measured:
[1] = molecular target: PRMT5/MEP50 (Homo sapiens, UniProt O14744); assay: MTase-Glo methyl transferase assay, Method B (FL-Histone H2A, 1 µM MTA, 1 h pre-incubation); assay type: biochemical; set-up: purchased Reaction Biology Corp RD-11-292; conditions: read-out: PRMT5 MTase Glo Ki (nM, Meth. B)
Outline: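 PRMT5/MEP50 (4 nM) was pre-incubated 1 h with compound, 5 µM SAM and 1 µM MTA, then started with 2.5 µM FL-Histone H2A in Tris pH 8.0 buffer. After 20 h at room temperature, SAH was detected by MTase-Glo luminescence, and IC50/KI were fitted from dose-response curves.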

[2] = tested on: HCT116 MTAP null cells; assay: HCT116 proliferation assay, MTAP null cells (CellTiter-Glo, 6 days); assay type: cell-based; conditions: read-out: Protif_ HCT116-MTAP null IC50
Outline: (§1)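 Seed cells in RPMI 1640 supplemented with 10% FBS and incubate overnight at 37° C under 5% CO2. Treat with serially diluted compound (threefold steps, 8 or 9 points, highest 1 or 10 µM) or DMSO alone, then quantify viability by luminescence.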

[3] = tested on: HCT116 WT cells; assay: HCT116 proliferation assay, WT cells (CellTiter-Glo, 6 days); assay type: cell-based; conditions: read-out: Prolif_HCT116-WT IC50
Outline: as §1

Chain of PRMT5/MEP50 (O14744 2-637 limits assumed): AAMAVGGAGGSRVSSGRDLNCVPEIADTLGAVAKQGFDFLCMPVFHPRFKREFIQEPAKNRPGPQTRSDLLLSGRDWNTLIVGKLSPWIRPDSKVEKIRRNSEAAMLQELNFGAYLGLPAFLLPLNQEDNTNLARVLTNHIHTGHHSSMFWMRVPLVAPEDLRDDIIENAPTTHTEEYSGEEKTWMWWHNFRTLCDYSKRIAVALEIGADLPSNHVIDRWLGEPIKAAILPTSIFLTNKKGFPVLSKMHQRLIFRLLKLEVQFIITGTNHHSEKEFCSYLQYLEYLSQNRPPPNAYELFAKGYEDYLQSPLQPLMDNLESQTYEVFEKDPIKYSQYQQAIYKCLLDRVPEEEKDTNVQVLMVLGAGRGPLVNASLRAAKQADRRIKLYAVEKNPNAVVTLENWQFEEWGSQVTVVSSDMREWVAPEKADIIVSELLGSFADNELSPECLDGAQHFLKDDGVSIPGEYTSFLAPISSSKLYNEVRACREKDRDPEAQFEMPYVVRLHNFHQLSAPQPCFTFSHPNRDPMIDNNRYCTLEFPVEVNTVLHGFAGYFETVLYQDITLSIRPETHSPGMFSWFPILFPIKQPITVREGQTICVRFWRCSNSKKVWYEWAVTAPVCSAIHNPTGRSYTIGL
Chain of PRMT5/MEP50 (Q9BQA1 2-342 partner limits assumed): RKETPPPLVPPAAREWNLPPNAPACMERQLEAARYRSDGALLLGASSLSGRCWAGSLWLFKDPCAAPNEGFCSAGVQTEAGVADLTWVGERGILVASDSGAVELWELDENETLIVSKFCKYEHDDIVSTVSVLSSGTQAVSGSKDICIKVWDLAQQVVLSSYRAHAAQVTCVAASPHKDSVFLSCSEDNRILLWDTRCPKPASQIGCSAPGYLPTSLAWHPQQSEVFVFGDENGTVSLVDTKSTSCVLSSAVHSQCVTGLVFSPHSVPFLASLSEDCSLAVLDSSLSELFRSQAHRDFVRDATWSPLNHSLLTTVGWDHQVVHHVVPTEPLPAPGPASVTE

| Ki [1] | IC50 ([2]; HCT116-MTAP null, 144 h) | IC50 ([3]; Homo sapiens, HCT-116, 144 h) | IC50 [2] | IC50 [3] | Structure (SMILES) |
| --- | --- | --- | --- | --- | --- |
| 1.62 nM | 0.276 µM | 3.5 µM | – | – | Cc1cc2cc(C(=O)N(Cc3ccc(C(F)(F)F)cn3)Cc3ccc4cc[nH]c4n3)ccc2nc1N [Example 615, N-((1H-pyrrolo [2,3-b]pyridin-6-yl)methyl)-2-amino-3-methyl-N-((5-(trifluoromethyl)pyridin-2-yl)methyl)quinoline-6-carboxamide] |
| 3.29 nM | 0.32 µM | > 1 µM | – | – | Cc1cc2cc(C(=O)N(Cc3ccc4[nH]c(N)nc4c3)Cc3ccc(C(F)(F)F)cn3)ccc2nc1N [Example 616, 2-amino-N-((2-amino-1H-benzo [d]imidazol-5-yl)methyl)-3-methyl-N-((5-(trifluoromethyl)pyridin-2-yl)methyl)quinoline-6-carboxamide] |
| 3.86 nM | 0.05 µM | > 1 µM | – | – | Cc1cc2cc(C(=O)N(Cc3ccc(C(F)(F)F)cn3)C3CCCC3C#N)ccc2nc1N (stereo not drawn) [Example 699, 2-amino-N-(2-cyanocyclopentyl)-3-methyl-N-[[5-(trifluoromethyl)-2-pyridyl]methyl] quinoline-6-carboxamide] |
| 2.97 nM | 0.334 µM | 1.43 µM | – | – | Cc1cc(N)nc2ccc(C(=O)N(Cc3ccc(C(F)(F)F)cn3)Cc3ccn(C)n3)cc12 [Example 709, 2-amino-4-methyl-N-[(1-methylpyrazol-3-yl)methyl]-N-[[5-(trifluoromethyl)-2-pyridyl]methyl] quinoline-6-carboxamide] |
| 1.87 nM | 0.128 µM | 1.3 µM | – | – | Cc1cc2cc(C(=O)N(Cc3ccc4cn[nH]c4c3)Cc3ccc(C(F)(F)F)cn3)ccc2nc1N [Example 619, N-((1H-indazol-6-yl)methyl)-2-amino-3-methyl-N-((5-(trifluoromethyl)pyridin-2-yl)methyl)quinoline-6-carboxamide] |
| 4.29 nM | 0.297 µM | > 1 µM | – | – | Cc1cc2cc(C(=O)N(Cc3ccc(C(F)(F)F)cn3)CC3CCOCC3)ccc2nc1N [Example 683, 2-amino-3-methyl-N-(tetrahydropyran-4-ylmethyl)-N-[[5-(trifluoromethyl)-2-pyridyl]methyl] quinoline-6-carboxamide] |
| 1.59 nM | – | – | 0.055 µM | 1.4 µM | Cc1cc2cc(C(=O)N(Cc3ccc4[nH]ncc4c3)Cc3ccc(C(F)(F)F)cn3)ccc2nc1N [Example 618, N-((1H-indazol-5-yl)methyl)-2-amino-3-methyl-N-((5-(trifluoromethyl)pyridin-2-yl)methyl)quinoline-6-carboxamide] |
| 3 to 4 nM | 0.053 µM | 0.44 µM | – | – | Cc1cc2cc(C(=O)N(Cc3ccc(C(F)(F)F)cn3)C3CCc4c(O)cccc43)ccc2nc1N (stereo not drawn) [Example 628, 2-amino-N-(4-hydroxy-2,3-dihydro-1H-inden-1-yl)-3-methyl-N-((5-(trifluoromethyl)pyridin-2-yl)methyl)quinoline-6-carboxamide] |
| 15.4 nM | 0.859 µM | 5.09 µM | – | – | Cc1cc2cc(C(=O)N(Cc3ccc(C(F)(F)F)cn3)Cc3c(C)c4ccccc4n3C)ccc2nc1N [Example 578, 2-amino-N-((1,3-dimethyl-1H-indol-2-yl)methyl)-3-methyl-N-((5-(trifluoromethyl)pyridin-2-yl)methyl)quinoline-6-carboxamide] |
| 1.76 nM | 0.157 µM | 7.7 µM | – | – | Cc1cc2cc(C(=O)N(Cc3ccc(CC(N)=O)cc3)Cc3ccc(C(F)(F)F)cn3)ccc2nc1N [Example 680, 2-amino-N-[ [4-(2-amino-2-oxoethyl)phenyl]methyl]-3-methyl-N-[[5-(trifluoromethyl)-2-pyridyl]methyl] quinoline-6-carboxamide] |
| 4.44 nM | 0.103 µM | > 1 µM | – | – | Cc1cc2cc(C(=O)N(Cc3ccc(C(F)(F)F)cn3)Cc3c[nH]c4ccccc34)ccc2nc1N [Example 567, 2-amino-N-(1H-indol-3-ylmethyl)-3-methyl-N-[[5-(trifluoromethyl)-2-pyridyl]methyl] quinoline-6-carboxamide] |
| 5.89 nM | 0.749 µM | > 10 µM | – | – | Cc1cc2cc(C(=O)N(CCc3ncon3)Cc3ccc(C(F)(F)F)cn3)ccc2nc1N [Example 576, N-(2-(1,2,4-oxadiazol-3-yl)ethyl)-2-amino-3-methyl-N-((5-(trifluoromethyl)pyridin-2-yl)methyl)quinoline-6-carboxamide] |
| 5.12 nM | 0.046 µM | 0.56 µM | – | – | Cc1cc2cc(C(=O)N(Cc3ccc(C(F)(F)F)cn3)C3CCCC3C#N)c(F)cc2nc1N (stereo not drawn) [Example 702, 2-amino-N-(2-cyanocyclopentyl)-7-fluoro-3-methyl-N-[[5-(trifluoromethyl)-2-pyridyl]methyl] quinoline-6-carboxamide] |
| 14.9 nM | 0.921 µM | 6.8 µM | – | – | Cc1cc2cc(C(=O)N(Cc3cncc(F)c3)Cc3ccccc3F)ccc2nc1N [Example 590, 2-amino-N-(2-fluorobenzyl)-N-((5-fluoropyridin-3-yl)methyl)-3-methylquinoline-6-carboxamide] |
| 3.89 nM | 0.159 µM | 6.65 µM | – | – | Cc1cc2cc(C(=O)N(Cc3ccc(C(F)(F)F)cn3)CC3(C#N)CC3)ccc2nc1N [Example 577, 2-amino-N-((1-cyanocyclopropyl)methyl)-3-methyl-N-((5-(trifluoromethyl)pyridin-2-yl)methyl)quinoline-6-carboxamide] |
| 2.29 nM | 0.114 µM | > 1 µM | – | – | Cc1cc2cc(C(=O)N(Cc3ccc(C(F)(F)F)cn3)Cc3ccnc4[nH]ccc34)ncc2nc1N [Example 684, 2-amino-3-methyl-N-(1H-pyrrolo[2,3-b]pyridin-4-ylmethyl)-N-[[5-(trifluoromethyl)-2-pyridyl]methyl]-1,7-naphthyridine-6-carboxamide] |
| 5.62 nM | 0.224 µM | 8.6 µM | – | – | Cc1cc2cc(C(=O)N(Cc3ccc(C(F)(F)F)cn3)CC(C)C#N)ccc2nc1N (stereo not drawn) [Example 694, 2-amino-N-(2-cyanopropyl)-3-methyl-N-[[5-(trifluoromethyl)-2-pyridyl]methyl] quinoline-6-carboxamide] |
| 1.83 nM | 0.1 µM | > 1 µM | – | – | Cc1cc2cc(C(=O)N(Cc3ccc4[nH]c(=O)oc4c3)Cc3ccc(C(F)(F)F)cn3)ccc2nc1N [Example 620, 2-amino-3-methyl-N-((2-oxo-2,3-dihydrobenzo [d]oxazol-6-yl)methyl)-N-((5-(trifluoromethyl)pyridin-2-yl)methyl)quinoline-6-carboxamide] |
| 4.33 nM | 0.251 µM | – | – | – | C#CCCN(Cc1ccc(C(F)(F)F)cn1)C(=O)c1ccc2nc(N)c(C)cc2c1 [Example 659, 2-amino-N-but-3-ynyl-3-methyl-N-[[5-(trifluoromethyl)-2-pyridyl]methyl] quinoline-6-carboxamide] |
| 12.2 nM | 0.58 µM | – | – | – | Cc1cc2cc(C(=O)N(Cc3cc(Cl)ccn3)CC(C)C)ccc2nc1N [Example 639, 2-amino-N-[(4-chloro-2-pyridyl)methyl]-N-isobutyl-3-methylquinoline-6-carboxamide] |
| 3.51 nM | 0.52 µM | – | – | – | Cc1cc2cc(C(=O)N(Cc3ccc(N)cn3)Cc3c[nH]c4ccccc34)ccc2nc1N [Example 691, 2-amino-N-[(5-amino-2-pyridyl)methyl]-N-(1H-indol-3-ylmethyl)-3-methyl-quinoline-6-carboxamide] |

From US20230159510A1, “NOVEL PRMT5 INHIBITORS” (AMGEN INC., priority 2020, published 2023)
